Patent publication US20170334934A1, “Macrocyclic picolinamides as fungicides” (DOW AGROSCIENCES LLC, priority 2014, published 2017)
Where two headings read alike, the source gives them in different places.

Tests used:
[1] = test system: Mycosphaerella graminicola; Anamorph: Zymoseptoria tritici; experiment: Fungicidal activity: Leaf Blotch of Wheat (SEPTTR), wheat seedlings; assay type: in vivo; conditions: wheat; for pest or weed control at 100 µg/mL: High Volume (100 ppm); for pest or weed control at 121.5 g/ha: Low Volume (121.5 g/H)
Protocol: Example A: Evaluation of Fungicidal Activity: Leaf Blotch of Wheat (Mycosphaerella graminicola; Anamorph: Zymoseptoria tritici; Bayer Code […]) Technical grades of materials were dissolved in acetone, which were then mixed with nine volumes of water containing 110 ppm Triton X-100. The fungicide solutions were applied onto wheat seedlings using an automated booth sprayer to run-off. All sprayed plants were allowed to air dry prior to further handling. All fungicides were evaluated using the aforementioned method for their activity vs. all target diseases, unless stated otherwise. Wheat leaf blotch and brown rust activity were also evaluated using track spray applications, in which case the fungicides were formulated as EC formulations, containing 0.1% Trycol 5941 in the spray solutions. Wheat plants (variety Yuma) were grown from seed in a greenhouse in 50% mineral soil/50% soil-less Metro mix until the first leaf was fully emerged, with 7-10 seedlings per pot. These plants were inoculated with an aqueous spore suspension of Zymoseptoria tritici either prior to or after fungicide treatments. After inoculation the plants were kept in 100% relative humidity (one day in a dark dew chamber followed by two to three days in a lighted dew chamber at 20° C.) to permit spores to germinate and infect the leaf. The plants were then transferred to a greenhouse set at 20° C. for disease to develop. When disease symptoms were fully expressed on the 1st leaves of untreated plants, infection levels were assessed on a scale of 0 to 100 percent disease severity. Percent disease control was calculated using the ratio of disease severity on treated plants relative to untreated plants.

[2] = test system: Puccinia triticina; experiment: Fungicidal activity: Wheat Brown Rust (PUCCRT), wheat seedlings; assay type: in vivo; conditions: for pest or weed control at 100 µg/mL: High Volume (100 ppm); for pest or weed control at 121.5 g/ha: Low Volume (121.5 g/H)
Protocol: Technical grades of materials were dissolved in acetone, which were then mixed with nine volumes of water containing 110 ppm Triton X-100. The fungicide solutions were applied onto wheat seedlings using an automated booth sprayer to run-off. All sprayed plants were allowed to air dry prior to further handling. All fungicides were evaluated using the aforementioned method for their activity vs. all target diseases, unless stated otherwise. Wheat leaf blotch and brown rust activity were also evaluated using track spray applications, in which case the fungicides were formulated as EC formulations, containing 0.1% Trycol 5941 in the spray solutions. Wheat plants (variety Yuma) were grown from seed in a greenhouse in 50% mineral soil/50% soil-less Metro mix until the first leaf was fully emerged, with 7-10 seedlings per pot. These plants were inoculated with an aqueous spore suspension of Zymoseptoria tritici either prior to or after fungicide treatments. After inoculation the plants were kept in 100% relative humidity (one day in a dark dew chamber followed by two to three days in a lighted dew chamber at 20° C.) to permit spores to germinate and infect the leaf. The plants were then transferred to a greenhouse set at 20° C. for disease to develop. When disease symptoms were fully expressed on the 1st leaves of untreated plants, infection levels were assessed on a scale of 0 to 100 percent disease severity. Percent disease control was calculated using the ratio of disease severity on treated plants relative to untreated plants. Example B: Evaluation of Fungicidal Activity: Wheat Brown Rust (Puccinia triticina; Synonym: Puccinia recondita f. sp. tritici; Bayer Code PUCCRT) Wheat plants (variety Yuma) were grown from seed in a greenhouse in 50% mineral soil/50% soil-less Metro mix until the first leaf was fully emerged, with 7-10 seedlings per pot. These plants were inoculated with an aqueous spore suspension of Puccinia triticina either prior to or after fungicide treatments. After inoculation the plants were kept in a dark dew room at 22° C. with 100% relative humidity overnight to permit spores to germinate and infect the leaf. The plants were then transferred to a greenhouse set at 24° C. for disease to develop. Fungicide formulation, application and disease assessment followed the procedures as described in the Example A.

[3] = 24 h, 1 Day Protectant, read-out: SEPTTR disease control rating, 1DP
[4] = 72 h, 3 Day Curative, read-out: SEPTTR disease control rating, 3DC
[5] = 24 h, 1 Day Protectant, read-out: PUCCRT disease control rating, 1DP
[6] = 72 h, 3 Day Curative, read-out: PUCCRT disease control rating, 3DC

Row | SMILES | pest or weed control at 100 µg/mL [1, 3] [%] | pest or weed control at 100 µg/mL [1, 4] [%] | pest or weed control at 100 µg/mL [2, 5] [%] | pest or weed control at 100 µg/mL [2, 6] [%] | pest or weed control at 121.5 g/ha [1, 3] [%] | pest or weed control at 121.5 g/ha [1, 4] [%] | pest or weed control at 121.5 g/ha [2, 5] [%] | pest or weed control at 121.5 g/ha [2, 6] [%]
1 | COc1ccnc(C(=O)N[C@H]2CCO[C@H](Cc3ccccc3)[C@@H](OCC(C)C)[C@H](C)OC2=O)c1O [Compound 51] | > 70 | < 70 | > 70 | > 70 |  |  |  | 
2 | C=CCO[C@H]1[C@H](C)OC(=O)[C@@H](NC(=O)c2nccc(OC)c2OCOC(C)=O)CCO[C@@H]1Cc1ccc(F)cc1 [Compound 78] |  |  |  |  | < 70 | < 70 | > 70 | > 70
3 | COc1ccnc(C(=O)N[C@H]2CCO[C@H](Cc3ccccc3)[C@@H](Oc3ccccc3)[C@H](C)OC2=O)c1OCOC(C)=O [Compound 82] |  |  |  |  | > 70 | > 70 | > 70 | > 70
4 | COc1ccnc(C(=O)N[C@H]2CCOC[C@@H](OC(=O)C(C)C)[C@H](C)OC2=O)c1O [Compound 70] | < 70 | < 70 | < 70 | < 70 |  |  |  | 
5 | COc1ccnc(C(=O)N[C@H]2CCO[C@H](Cc3ccc(F)cc3)[C@@H](Oc3ccccc3)[C@H](C)OC2=O)c1O [Compound 52] | > 70 | > 70 | > 70 | > 70 |  |  |  | 
6 | C=C(C)CO[C@H]1[C@H](C)OC(=O)[C@@H](NC(=O)c2nccc(OC)c2O)CCO[C@@H]1CC [Compound 61] | < 70 | > 70 | > 70 | > 70 |  |  |  | 
7 | COc1ccnc(C(=O)N[C@H]2CCOC[C@@H](Oc3ccccc3)[C@H](C)OC2=O)c1O [Compound 69] | > 70 | > 70 | > 70 | > 70 |  |  |  | 
8 | COc1ccnc(C(=O)N[C@H]2CCO[C@H](Cc3ccccc3)[C@@H](OCC(C)C)[C@H](C)OC2=O)c1OC(C)=O [Compound 71] |  |  |  |  | > 70 | > 70 | > 70 | > 70
9 | CC[C@H]1OCC[C@H](NC(=O)c2nccc(OC)c2OC(C)=O)C(=O)O[C@@H](C)[C@@H]1OCC(C)C [Compound 93] |  |  |  |  | > 70 | > 70 | > 70 | > 70
10 | CC[C@H]1OCC[C@H](NC(=O)c2nccc(OC)c2OC(C)=O)C(=O)O[C@@H](C)[C@@H]1OC(=O)C(C)C [Compound 95] |  |  |  |  | < 70 | > 70 | > 70 | > 70
11 | C=CCO[C@H]1[C@H](C)OC(=O)[C@@H](NC(=O)c2nccc(OC)c2O)CCO[C@@H]1Cc1ccc(F)cc1 [Compound 55, N-((2R,3S,4S,7S)-3-(allyloxy)-2-(4-fluorobenzyl)-4-methyl-6-oxo-1,5-dioxonan-7-yl)-3-hydroxy-4-methoxypicolinamide] | > 70 | > 70 | > 70 | > 70 |  |  |  | 
12 | COc1ccnc(C(=O)N[C@H]2CCOC[C@@H](OCc3ccccc3)[C@H](C)OC2=O)c1OCOC(C)=O [Compound 96] |  |  |  |  | < 70 | > 70 | > 70 | > 70
13 | COc1ccnc(C(=O)N[C@H]2CCOC[C@@H](OC(=O)C(C)C)[C@H](C)OC2=O)c1OCOC(C)=O [Compound 98] |  |  |  |  | < 70 | < 70 | < 70 | < 70
14 | COc1ccnc(C(=O)N[C@H]2CCO[C@H](CC3CCCC3)[C@@H](Oc3ccccc3)[C@H](C)OC2=O)c1OCOC(C)=O [Compound 85] |  |  |  |  | > 70 | > 70 | > 70 | > 70
